From patent US9370506B2, “Modulators of aldehyde dehydrogenase and methods of use thereof” (The Board of Trustees of the Leland Stanford Junior …, priority 2008, dated 2016)

Assays:
[1] = target: T1, ALDH3 (Homo sapiens, UniProt P30838); test: ALDH3 enzymatic activity, spectrophotometric NAD+ to NADH assay; type: biochemical; conditions: acetaldehyde as substrate; FIG. 15
T1 construct: made in house; host or cells: BL21 E. coli
T1 sequence (P30838 1-453): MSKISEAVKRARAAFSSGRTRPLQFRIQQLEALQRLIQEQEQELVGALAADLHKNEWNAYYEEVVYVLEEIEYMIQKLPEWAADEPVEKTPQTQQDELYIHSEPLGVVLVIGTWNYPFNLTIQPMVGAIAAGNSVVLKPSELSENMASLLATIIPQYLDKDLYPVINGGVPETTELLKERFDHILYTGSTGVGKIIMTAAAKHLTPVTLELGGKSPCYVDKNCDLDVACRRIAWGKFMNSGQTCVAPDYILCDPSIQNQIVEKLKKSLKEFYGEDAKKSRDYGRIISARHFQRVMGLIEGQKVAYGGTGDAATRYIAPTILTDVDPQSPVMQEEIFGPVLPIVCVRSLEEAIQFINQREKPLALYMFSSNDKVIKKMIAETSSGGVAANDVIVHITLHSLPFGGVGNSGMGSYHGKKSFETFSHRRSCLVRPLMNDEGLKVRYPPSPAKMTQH
Description: (§1) Reagents for plant-derived compounds safrole, isosafrole, piperine, sesamin, capsaicin were purchased from Sigma-Aldrich Chemicals and dihydromethysticin was purchased from AvaChem. Scientific. Piperine related compounds, Alda-101 to Alda-112, were synthesized by standard organic chemistry. All testing compounds were dissolved in dimethyl-sulfoxide (DMSO) to obtain a stock solution of 20 mM. Different recombinant ALDH isozymes with a His-epitope tag at the N-terminus were constructed, cloned and expressed in BL21 E. coli host cells according published methods (Chen et al., 2008 Science 321:1493). The bacteria were subjected to 0.5 mM IPTG induction for protein expression at 30° C. Purification of the recombinant proteins by affinity nickel columns were carried out using a standard protocol according to manufacturer's instructions (Novagen, Wis., USA).
(§2) ALDH enzymatic activity was determined spectrophotometrically using purified recombinant protein (15 ug) in the reductive reaction of NAD^+ to NADH at λ340 nm (Rex et al., 1985, Alcohol Clin Exp Res 9: 147). All the assays in the presence of absence of a testing compound were carried out at 25° C. in […] pyrophosphate buffer, pH=9.5, 2.4 mM NAD+ and 10 mM acetaldehyde or phenylacetaldehyde as a substrate.

[2] = target: T2, ALDH2 isozyme (Homo sapiens, UniProt P05091); test: ALDH2 enzymatic activity, spectrophotometric NAD+ to NADH assay; type: biochemical; conditions: 40 uM
T2 construct: made in house; host or cells: BL21 E. coli
T2 sequence (P05091 18-517): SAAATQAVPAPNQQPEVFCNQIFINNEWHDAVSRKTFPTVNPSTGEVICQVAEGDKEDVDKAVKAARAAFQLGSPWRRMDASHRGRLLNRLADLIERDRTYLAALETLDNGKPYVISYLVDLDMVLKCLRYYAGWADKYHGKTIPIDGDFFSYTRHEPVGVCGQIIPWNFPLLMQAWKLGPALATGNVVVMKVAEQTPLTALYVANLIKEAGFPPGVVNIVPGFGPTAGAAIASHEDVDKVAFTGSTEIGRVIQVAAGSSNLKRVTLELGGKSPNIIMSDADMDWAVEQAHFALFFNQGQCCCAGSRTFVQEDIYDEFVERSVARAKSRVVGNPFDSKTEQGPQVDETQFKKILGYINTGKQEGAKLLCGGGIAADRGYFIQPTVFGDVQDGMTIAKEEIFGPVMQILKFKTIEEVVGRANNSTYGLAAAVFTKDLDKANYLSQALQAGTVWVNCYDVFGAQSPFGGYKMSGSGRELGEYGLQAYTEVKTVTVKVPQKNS
Description: as §1, §2

[3] = test system: C57Bl/6J mice; test: Radiation dermatitis model, gamma irradiation of skin; type: in vivo
Source text: Radiation dermatitis is a painful side effect experienced by human patients undergoing radiotherapy for solid tumors. Radiation dermatitis is believed to be due to acute oxidative injury to the skin, which leads to lipid peroxidation and the accumulation of reactive aldehydes, such as 4-hydrorxynonenal. In this example, Alda-1 is shown to reduce radiation dermatitis by maintaining ALDH activity during exposure to radiation. C57Bl/6J mice were exposed to 6Gy gamma irradiation per day (applied directly to the shaved back area over a period of 5 minutes) in the absence or presence of 200 μl of 3 mM Alda-1 (in 95% ethanol) or […] alone (vehicle control). Alda-1 or ethanol alone was applied topically 5 minutes before and 5 minutes after each radiation treatment for a total of 10 sessions (60 Gy total, 6 Gy/day with a two-day break after 5 sessions). Mice were euthanized and exposed skin was dissected, and either homogenized in Lysis Buffer (for ALDH2 activity assay, FIG. 18) or fixed in 4%-paraformaldehyde (for histological analysis, FIG. 19).

[4] = test system: SCC VII murine squamous cell carcinoma cells; test: Tumor radiation therapy model; type: in vivo, mice; conditions: topical 200 μl of 3 mM, FIG. 21
Description: In order to determine the impact of Alda-1 on the effectiveness of radiation therapy, C57Bl/6J mice were inoculated subcutaneously with SCC VII murine squamous cell carcinoma cells (5×10^5) and exposed to radiation therapy (250cGy/day) in the absence or presence of Alda-1 (200 μl of 3 mM Alda-1 in 95% ethanol) or ethanol (200 μl of 95% ethanol) applied 5 min before and 5 min after radiation. Tumor volume was measured daily until the tumor reached four times its starting size at treatment onset (Ning et al., 2008, Mol Cancer Therapy 7:1569-78).

**Q.** `O=C(NCc1ccc2c(c1)OCO2)c1c(Cl)cccc1Cl` [Alda-1, N-(1,3-benzodioxol-5-ylmethyl)-2,6-dichlorobenzamide] was tested. Which “effect on enzymatic activity of ALDH3 isozyme” value [1] did it give?
**A.** does not have any effect

**Q.** And the “effect of co-incubation on safrole inhibition of ALDH2” value ([2]; safrole 500 uM & 1000 uM, FIG. 17)?
**A.** prevented and reversed

**Q.** And the “effect of co-incubation on safrole inhibition of ALDH2, 15-minute kinetic measurements” value ([2]; safrole 1000 uM, FIG. 18)?
**A.** prevented and reversed

**Q.** What about the “ALDH activity in irradiated skin” value ([3]; topical 3 mM in 95% ethanol, 6Gy gamma irradiation, FIG. 19) of the same molecule?
**A.** significantly attenuated the inhibition of ALDH

**Q.** What about the “Epidermal thickening after radiation” value ([3]; topical 3 mM, 5 days exposure to 6Gy irradiation, vs vehicle control, FIG. 20) of the same molecule?
**A.** significantly reduced

**Q.** What about the “sensitivity of the tumor to radiation treatment (tumor growth)” value ([4]; 250cGy/day, vs ethanol vehicle control) of the same molecule?
**A.** increased significantly the sensitivity of the tumor to radiation treatment

**Q.** And the “tumor growth in non-irradiated mice” value ([4]; no radiation, vs ethanol treated mice)?
**A.** no effect on tumor growth
